What is called EC50 is the concentration giving half of the maximal effect. Higher therefore signals a less potent agent. The Ki is the dissociation constant of the complex between target and ligand, obtained from inhibition or displacement. What is called Kd is the concentration at which binding is half-saturated.

The test system of data set [1] is control, TMEM97 KO, PGRMC1 KO and double KO HeLa cells. The experiment in a line: Cell viability assay across control and knockout HeLa cell lines (results in words). Conditions: for block of sigma-2 ligand-induced cytotoxicity: 30 µM, 1 h pre-incubation, then with sigma-2 agonists 24 h, all four cell lines; for cytotoxicity in control and knockout cells: TMEM97 KO, PGRMC1 KO and double KO HeLa cells.
Procedure: In order to study whether sigma-2 ligand-induced cytotoxicity is mediated by sigma-1 receptors, we used a sigma-1 agonist, (+)-pentazocine, or sigma-1 antagonist, NE-100, to block the sigma-1 binding site and then examined sigma-2 ligand-induced cytotoxicity. […] We pre-incubated cells with vehicle (cell culture media), 30 µM (+)-pentazocine, or 30 µM NE-100 for 1 h, then treated cells with sigma-2 agonists in the absence or presence of (+)-pentazocine or NE-100 for 24 h.
The cytotoxicity of compounds was determined using the CellTiter Glo® chemiluminescent assay (Promega, Madison, WI) that measures ATP. Cells were plated in black wall clear bottom 96-well plates at 5000 cells per well 24 h before treatment. Each compound was dissolved in DMSO and serially diluted in culture medium to acquire the desired concentrations. The final concentration of DMSO in the cell culture medium was no more than 1.0%. After 24 h treatment with the various compounds, 25 μl of the CellTiter Glo® Solution Reagent was added to each well. Then plates were immediately read on a Perkin Elmer Enspire® Multimode Plate Reader. Luminescence detected for each well was normalized to the untreated control and data was calculated as percent viability. The EC50, defined as the concentration of the sigma ligand required to inhibit cell proliferation by 50% relative to untreated cells, was determined from the dose–response curves generated using GraphPad Prism version 6 (GraphPad Software, Inc. La Jolla, CA).

The subject of data set [2] is PGRMC1 KO HeLa cells. The experiment in a line: Cell viability assay (CellTiter Glo), PGRMC1 KO cells. Type of data set: cell-based, human. Conditions: 24 h, mean ± SD. Here is the method:
(§1) HeLa human cervical cancer cells were from American Type Culture Collection (ATCC, Manassas, VA). Control, TMEM97 KO, PGRMC1 KO and TMEM97/PGRMC1 double KO HeLa cell lines were grown in MEM containing 10% fetal bovine serum, 2 mM L-glutamine, 1% non-essential amino acids, 100 units/ml penicillin, and 100 μg/ml streptomycin. All the cell lines were maintained at 37 °C in a humidified incubator with a 5% CO2/95% air atmosphere.
A general note: Cellular ATP, detected with luciferase, serves as a proxy for viable cell number.

In data set [3] the test system is TMEM97 KO HeLa cells. The experiment in a line: Cell viability assay (CellTiter Glo), TMEM97 KO cells. It is filed as cell-based, human. The settings on record: 24 h, mean ± SD. The procedure:
as §1

The test system of data set [4] is control HeLa cells. Nature of the data set: Cell viability assay (CellTiter Glo), control cells. It is filed as cell-based, human. The settings on record: 24 h, mean ± SD. The procedure: as §1
Data set [5] deals with TMEM97/PGRMC1 double KO HeLa cells. Nature of the data set: Cell viability assay (CellTiter Glo), double KO cells. The settings on record: 24 h, mean ± SD. Type of data set: cell-based, human. The procedure:
as §1

In data set [6] the target is T1, sigma-2 receptors (Rattus norvegicus, UniProt Q5U3Y7).
T1 sequence (Q5U3Y7 1-176): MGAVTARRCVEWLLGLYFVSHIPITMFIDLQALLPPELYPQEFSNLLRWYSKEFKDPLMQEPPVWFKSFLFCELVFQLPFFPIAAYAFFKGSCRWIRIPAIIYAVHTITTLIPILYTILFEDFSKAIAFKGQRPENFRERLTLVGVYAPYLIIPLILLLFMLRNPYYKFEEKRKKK
Nature of the data set: Sigma-2 receptor competition binding assay with [3H]DTG. Details: 60 μg Sprague Dawley rat liver membrane homogenates; from tissue; host or cells: Sprague Dawley rat liver membrane homogenates.
Procedure: (§2) The sigma-1 and sigma-2 receptor binding affinities of sigma-2 ligands were determined using a competition assay as previously described[32],[33]. […] The concentrations of each non-radioactive compound ranged from 0.1 to 10 μM. The non-specific binding was determined in the presence of 10 μM haloperidol. […] The concentrations of each non-radioactive compound ranged from 0.1 nM to 10 μM. 500 nM of (+)-pentazocine was added to mask the sigma-1 receptor binding site. The non-specific binding was determined in the presence 10 μM DTG.
(§3) After incubation, the bound ligands were filtrated with a M-24 Brandel filtration system (Brandel, Gaithersburg, MD, USA), collected on glass fiber papers (Whatman grade 934-AH, GE Healthcare Bio-Sciences, Pittsburgh, PA), and counted with a MicroBeta2 Microplate counter 2450 (Perkin Elmer, Boston, MA). […] Ki values were reported as mean ± SD from at least three independent experiments.

For data set [7], the target named is T2, sigma-1 receptors (Cavia porcellus, UniProt Q60492).
T2 construct: 100 μg guinea pig brain membrane homogenates; from tissue; host or cells: guinea pig brain membrane homogenates
Nature of the data set: Sigma-1 receptor competition binding assay with [3H](+)-pentazocine. More on the design: species or system guinea pig.
Procedure: as §2, §3

Data set [8] relates to DTG residual binding site (RBS). The experiment in a line: DTG RBS competition binding assay, double KO cell membranes. Conditions: double KO HeLa cell membranes, 45 nM [3H]DTG, 500 nM (+)-pentazocine mask. More on the design: species or system human.
Procedure: (§4) The binding affinities of sigma-2 ligands for the DTG RBS were determined using a competition assay as previously described[13],[33] with minor modification. For cell harvesting, TMEM97 KO or TMEM97/PGRMC1 double KO HeLa cells were scraped from culture dishes in ice-cold Phosphate-Buffered Saline (PBS) and collected by centrifugation. The cell pellets were immediately stored at −80 °C until use. For cell membrane homogenate preparation, the cell pellets were re-suspended in 10 mL ice-cold PBS, and homogenized using Wheaton overhead stirrer (120 Vac Overhead Stirrer, Millville, NJ, USA) at the speed of 2 for 30 sec. The cell homogenates were then centrifuged for 20 min at 31,000×g at 4 °C. After centrifugation, the supernatant was discarded and the pellets were re-suspended in 1 mL ice-cold PBS and stored at −80 °C freezer until use. […] 500 nM (+)-pentazocine was added to mask the sigma-1 receptor binding site. The non-specific binding was determined in the presence of 60 μM cold DTG.
as §3
Data set [9] shares this test system. Nature of the data set: DTG RBS competition binding assay, TMEM97 KO cell membranes. More on the design: species or system human. The settings on record: TMEM97 KO HeLa cell membranes, 45 nM [3H]DTG, 500 nM (+)-pentazocine mask.
Procedure: as §4, §3
Data set [10] deals with caspase-3 activation in control and knockout HeLa cells. Nature of the data set: Caspase-Glo 3/7 assay. Type of data set: cell-based, human. The settings on record: 24 h, TMEM97 KO and PGRMC1 KO cell lines. The procedure: HeLa cells were plated in white opaque 96-well plate at a cell density of 5000 cells per well for 24 h. […] Caspase-3/7 activity was measured by using the Caspase-Glo 3/7 Assay (Promega).

Data set [11] has as its system control, TMEM97 KO, PGRMC1 KO and double KO HeLa cells. The experiment in a line: Internalization of SW120 (confocal imaging). The settings on record: 100 nM, room temperature. It is filed as cell-based, human. The procedure: HeLa cells were plated on 35-mm-diameter glass-bottom dishes at 2 × 10^5 cells per dish and incubated for 24 h. Prior to imaging, media was removed and fresh media containing 100 nM SW120 was added to the dishes. SW120 uptake in the live cells at room temperature was imaged using an inverted confocal microscope (Leica STED 3× super-resolution microscope). Images were acquired at 25 s intervals using a ×10 objective lens (using an excitation wavelength of 488 nm, and a 505 to 540 nm bandpass filter). Five optical slices at 2-μm intervals were scanned using the Z-stack function of the Leica imaging software. The brightest optical slice out of the five Z-stack optical slices was chosen for fluorescent intensity analysis. Twenty cells were analyzed in each dish using Fiji, an open-source platform based on ImageJ[35]. The fluorescent intensity was calculated as an average of 60 cells from three independent experiments (mean ± SEM).

Data set [12] has as its target T1, sigma-2 receptors. The settings on record: rat liver membranes, 500 nM (+)-pentazocine mask.
Procedure: binding, the nonspecific binding was determined inthe presence of
was added to mask the sigma-1 receptor binding site and the
nonspecific binding was determined in the presence 10 μM DTG.
The Kd and Bmax values were determined by a nonlinear regression
analysis using GraphPad Prism software.
The Kd and Bmax values were
reported as mean ± SD in at least three independent experiments
Data set [13] has as its target DTG residual binding site (RBS). Details: method as in PMID 30443021. The settings on record: TMEM97 KO HeLa cell membranes; read-out: Kd for the [3H]DTG RBS, TMEM97 KO cell membranes; cited from earlier work.
Data set [14] has the same target. More on the design: method as in PMID 30443021. The settings on record: double KO HeLa cell membranes; read-out: Kd for the [3H]DTG RBS, double KO cell membranes; cited from earlier work.
[15] abbreviates: rat liver membranes, 5 nM [3H]DTG, 500 nM (+)-pentazocine mask, mean ± SD, read-out: Ki for sigma-2 receptors.
Setting [16] is: guinea pig brain membranes, 5 nM [3H](+)-pentazocine, mean ± SD, read-out: Ki for sigma-1 receptors.

Read-outs that look alike come from different tables or passages of the source.

T2 sequence (Q60492 whole entry): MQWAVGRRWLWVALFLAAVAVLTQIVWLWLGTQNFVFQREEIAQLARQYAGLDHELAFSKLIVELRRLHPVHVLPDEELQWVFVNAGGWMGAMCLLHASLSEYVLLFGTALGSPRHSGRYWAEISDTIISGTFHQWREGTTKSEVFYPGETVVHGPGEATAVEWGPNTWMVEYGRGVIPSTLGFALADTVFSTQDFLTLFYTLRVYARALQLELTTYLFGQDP

In the case of `CC(C)=CCN1CC[C@]2(C)c3cc(O)ccc3C[C@H]1[C@H]2C` [(+)-pentazocine], the “block of sigma-2 ligand-induced cytotoxicity” value in data set [1] was “neither (+)-pentazocine nor NE-100 blocked sigma-2 ligand-induced cytotoxicity”. Moreover, the “cytotoxicity in control and knockout cells” value in data set [1] is on record as “did not exhibit cytotoxicity”. The EC50 in [2], in [3], in [4] and in data set [5] was more than 200 µM in each case.
As to `COc1cc2c(cc1OC)CN(CCCCNC(=O)c1cc(C)ccc1OCCF)CC2` [ISO-1], in data set [1], the “cytotoxicity in control and knockout cells” value was “did not exhibit”. Besides, the half-maximal effective concentration (EC50) in [2] (Homo sapiens), in data set [3] (Homo sapiens), in data set [4] (Homo sapiens) and in data set [5] (Homo sapiens) was more than 200 µM in each case. Besides, the Ki in [6] (setting [15]) was found to be 2 ± 0.6 nM; in data set [7] (setting [16]), 23.9 ± 1.9 nM.
Turning to `CCCN(CCC)CCc1ccc(OC)c(OCCc2ccccc2)c1` [NE-100], the “block of sigma-2 ligand-induced cytotoxicity” value in [1] was “neither (+)-pentazocine nor NE-100 blocked sigma-2 ligand-induced cytotoxicity”. Besides, the “cytotoxicity in control and knockout cells” value in data set [1] is given as “did not exhibit cytotoxicity”. Also, the EC50 in data set [2], in data set [3], in data set [4] and in [5] was more than 200 µM each time.
In the case of `COc1cccc2c1CCCC2CCCN1CCN(C2CCCCC2)CC1` (stereo not drawn) [PB28, 1-Cyclohexyl-4-[3-(5-methoxy-1,2,3,4-tetrahydronaphthalen-1-yl)propyl]piperazine], the concentration for a half-maximal effect (EC50) in data set [2] (Homo sapiens) was 59.4 ± 8 µM; in data set [3] (Homo sapiens) it was 59.8 ± 10.7 µM; in [4] (Homo sapiens) it was 58.2 ± 5.9 µM; in [5] (Homo sapiens) it was 57.4 ± 6.9 µM. The results for the inhibitory constant (Ki) in data set [8], in data set [6] (setting [15]) and in [9] were 5.2 nM, 1.1 ± 0.3 nM and 8.7 nM, respectively.
For the molecule `COc1cc2c(cc1OC)CN(CCCCNC(=O)c1cc(C)ccc1OC)CC2` [RHM-1], the “cytotoxicity in control and knockout cells” value in [1] is on record as “did not exhibit”. For the same molecule, the concentration for a half-maximal effect (EC50) in [2] (Homo sapiens), in data set [3] (Homo sapiens), in data set [4] (Homo sapiens) and in data set [5] (Homo sapiens) was more than 200 µM throughout. Also, the Ki in data set [7] (setting [16]) was determined as 1930 ± 625 nM.
On to `COc1cc2c(cc1OC)CN(CCCCNC(=O)c1cc(I)cc(OC)c1OC)CC2` [RHM-4], for which the EC50 in [2] (Homo sapiens), in data set [3] (Homo sapiens), in data set [4] (Homo sapiens) and in data set [5] (Homo sapiens) was more than 200 µM throughout. Also, the inhibitory constant (Ki) in data set [8] is more than 100000 nM; in [6] (setting [15]), 2.4 ± 0.2 nM; in data set [7] (setting [16]), 3610 ± 533 nM; in data set [9], more than 100000 nM.
On to `COc1ccc(C)cc1NC(=O)OC1CC2CCCC(C1)N2CCCCCCCCCCN` (stereo not drawn) [SW43], for which the EC50 in data set [2] (Homo sapiens) is 33.2 ± 1.6 µM; in data set [3] (Homo sapiens) it was 30.4 ± 3.4 µM; in data set [4] (Homo sapiens), 33.7 ± 8.6 µM; in data set [5] (Homo sapiens), 32.8 ± 3.8 µM. Also, the Ki in data set [8] was found to be 8620 nM; in [6], 12.9 ± 2.3 nM; in data set [7] (setting [16]), 278 ± 65 nM; in data set [9] it was 33500 nM. Further, the “EC50 of caspase-3/7 activation, comparison of cell lines” value in data set [10] is given as “identical”.
As for `COc1ccc(C)cc1NC(=O)OC1CC2CCCC(C1)N2CCCCCCCCCCNc1ccc([N+](=O)[O-])c2nonc12` (stereo not drawn) [SW120], the “uptake signals at 60, 90 and 120 min, all cell lines” value in data set [11] is “essentially the same for all the cell lines”. In data set [11] (25-sec intervals for 18 min, TMEM97 KO, PGRMC1 KO and double KO cells), the “internalization rate in knockout cells compared to control cells” value is “reduced internalization rates”. Moreover, the Ki was 1 ± 0.3 nM in data set [6] and 1940 ± 262 nM in data set [7] (setting [16]).
Turning to `Fc1ccc(-n2cc(CCCCN3CCC4(CC3)OCc3ccccc34)c3ccccc32)cc1` [Siramesine, siramesine], the half-maximal effective concentration (EC50) in data set [2] (Homo sapiens) was determined as 10.7 ± 0.7 µM; in data set [3] (Homo sapiens), 10.3 ± 1.49 µM; in [4] (Homo sapiens) it was 12.1 ± 1.7 µM; in data set [5] (Homo sapiens) it was 10 ± 1.3 µM. For the same molecule, the Ki in data set [8] amounted to 49.7 nM; in data set [7], 3 ± 0.5 nM; in data set [9], 115 nM.
`Cc1ccccc1NC(=N)Nc1ccccc1C` [[^3H]DTG, 1,3-Di-o-tolylguanidine]: in data set [12], the “Bmax of [3H]DTG” value was 8958.0 ± 924.9 fmol/mg. Further, the results for the Kd in [13] and in data set [14] were 302 nM and 403 nM, respectively.

Values taken from PMC6349905 (Cell Death Discovery, 2019).
